Assays:
[1] = tested on: mutant codon 12 KRAS gene and wild-type KRAS gene in LS180; experiment: Colony sequence of KRAS transcripts, LS180; assay type: cell-based, human; conditions: for MUT (number of mutant gene colonies) / WT (number of wild-type gene colonies): LS180, 50 nM, 48 hours, colony sequence, Table 2; for number of mutant gene colonies relative to wild-type gene colonies: LS180, colony sequence method
Procedure: The cells (6.5×10^4) were seeded and were then cultured overnight. Thereafter, the cultured cells were treated with 50 nM KR12 or KR13, and were then cultured for 48 hours. After that, the cultured cells were harvested, and RNA was then extracted. For the extraction, RT-PCT was carried out using RNeasy mini kit (Qiagen, CA). Subsequently, using the extracted RNA as a template, cDNA for reverse transcription was prepared by employing Super Script VILO cDNA Synthesis Kit (Invitrogen, CA). Using the prepared cDNA as a template, PCR was carried out using the primers shown in SEQ ID NO: 7 and SEQ ID NO: 8. After a reaction had been carried out at 94° C. for 5 minutes, a reaction cycle of 94° C.-30 seconds, 55° C.-30 seconds, and 72° C.-30 seconds was repeated 20 times. Finally, an elongation reaction was carried out at 72° C. for 7 minutes. The PCR product was cloned using pGEM-T Easy vector (Promega, WI). Thereafter, Escherichia coli DH5α competent cells (Toyobo, Japan) were transformed with the clone, and the obtained transformant was then cultured at 37° C. overnight in an LB plate containing 50 μg/mL ampicillin, 1 mg of X-gal and 1 mg of isopropyl-β-thiogalactopyranoside. White colonies were identified by colony direct PCR. Regarding the PCR reaction cycle, after a reaction had been carried out at 94° C. for 5 minutes, a reaction cycle of 94° C.-30 seconds, 55° C.-30 seconds, and 72° C.-30 seconds was repeated 30 times. Finally, an elongation reaction was carried out at 72° C. for 7 minutes. The following primer set, namely, an M13-F1 primer and an M13-R1 primer were used for amplification. The sequence of the amplified DNA was decoded using a sequencing primer KRAS-2R, and the KRAS gene mutation site in each colony was then identified.
KR12, which was considered to specifically alkylate the KRAS mutant codon 12 gene, was administered to a heterozygous colon cancer cell line LS180 having both a mutant codon 12 KRAS gene and a wild-type KRAS gene. Forty-eight hours later, RNA was extracted, and the KRAS gene was then quantitatively amplified. The amplified gene was cloned into a plasmid, using a TA cloning kit, and the obtained plasmid was then introduced into competent cells. Thereafter, by performing blue-white selection using an LB/amp/IPTG/X-Gal plate, white colonies having inserts were picked up, and then, the presence or absence of a colon 12 mutation in each colony was examined by direct sequencing or by a colony PCR method.

SW480 (KRAS-MUThomo) = experiment: Suppression of tumor growth in nude mice, SW480 transplanted; assay type: in vivo; conditions: nude mice with SW480 cells; for cancer tumor-inhibitory effect / tumor growth suppression: comparison KR12, KR13, seco CBI, FIG. 15
Procedure: The below-mentioned 3 types of PBS solutions containing each type of cells were subcutaneously transplanted into the femurs of nude mice (i.e., HT29 into 7 mice, LS180 into 7 mice, and SW480 into 6 mice), and thereafter, at a time point in which a tumor adhered to the living body of each mouse and the tumor volume became approximately 100 mm^3, a drug was prepared with a composition of 3.4 mmol KR12 (1.36 mM KR12 dissolved in 2.5 μL of DMSO and 197.5 μL of PBS), or of a DMSO/PBS control (2.5 μL of DMSO and 197.5 μL of PBS). The prepared drug was subjected to sonication for 10 minutes, and 200 μL of the drug was administered to each mouse via the caudal vein thereof. The body weight and the tumor size were measured once three days, and the size of the tumor was measured by the method of 0.52×L×W×D(1/6×π×L×W×D).
SW480 (KRAS-MUThomo): (transplanted in an amount of 5×10^6 cells/100 μl PBS into the subcutis of each mouse; a cell line having a […] KRAS gene codon 12 mutation G12V)
Using, as controls, PIP-indole-seco-CBI (KR13) not recognizing a codon 12 mutation and 8.4 mmol seco CBI (3.36 mM CBI dissolved in 2.5 μL of DMSO and 197.5 μL of PBS), instead of the DMSO/PBS control, an experiment was carried out by the same method as that of the above section 11.

LS180 cells [2] = experiment: Analysis of change in cell cycle (propidium iodide, flow cytometry); assay type: cell-based, human; conditions: LS180, 50 nM, FIG. 10A; for change in cell cycle: 72 hours; for change in cell cycle, Sub G1 stage (cell death): long-term treatment (14 days)
Procedure: In order to observe a cell cycle, treated cells and untreated cells were each washed with DNase-free PBS twice, and were then immobilized with 70% ethanol (frozen). The immobilized cells were treated with PBS containing 10 µg/mL RNaseA and 50 µg/mL propidium iodide, while they were left in a dark place at room temperature for 30 minutes. Using an FL-2H filter of FACS Calibur flowcytometer (Becton Dickinson, USA), fluorescence intensity was measured. The rate of cell cycle was determined by analyzing the obtained data using Cell Quest software (Becton Dickinson, USA). Regarding the treatment of cells, LS180 was treated with 50 nM KR12 or KR13 (dissolved in 0.125% DMSO) for 72 hours, and as a long-term treatment experiment, a culture experiment was carried out for 14 days. As a control, the cells were cultured in an MEM medium containing 10% FBS and 0.125% DMSO for 14 days.

LS180 cells [3] = experiment: Confirmation of cell death (apoptosis) by fragmentation of DNA; assay type: cell-based, human; conditions: LS180, 50 nM, FIG. 10B
Procedure: Regarding the treatment of cells, the LS180 cells were cultured at a cell density of 1.0×10^5 cells/30 mm dish in a culture media of MEM (gibco)+10% FBS (gibco)+100 units/ml Penicillin+100 μg/ml Streptmycin (gibco). Thereafter, the cultured cells were treated with 50 nM KR12 or KR13 (dissolved in 0.125% DMSO) for 72 hours, and also, as a long-term experiment, the cells were treated with KR 12 or KR13 for […]. Thereafter, the cells of different groups were treated with a control MEM medium containing 10% FBS and 0.125% DMSO for 11 days. At the same time, as a control group, the LS180 cells were treated with 10% FBS and 0.125% DMSO for 14 days. Thereafter, the cells of the different groups were treated with trypsin, and were then recovered. The recovered cells were stirred in 50 μl of a PBS solution, and 3 μl of 1.5% Triton X (in water) and 3 μl of an RNase (1 mg/ml in water) were then added to the reaction solution. The mixed solution was treated at 37° C. for 30 minutes. Subsequently, 3 μl of proteinase K (1 mg/ml) was added to the reaction solution, and the obtained mixture was then treated at 37° C. for 30 minutes. Subsequently, 12 μl of 6× loading buffer was further added to the reaction solution, and the obtained mixture was treated at 65° C. for 10 minutes. Immediately after the treatment, 20 μl of the reaction solution was electrophoresed on 2% agarose gel in TBE at 100 V, and the gel was then stained with ethidium.

| SMILES | MUT (number of mutant gene colonies) [1] | WT (number of wild-type gene colonies) [1] | number of mutant gene colonies relative to wild-type gene colonies [1] | tumor size (SW480 (KRAS-MUThomo); 3.4 mmol KR12 via the caudal vein, FIG. 14C) | size of the tumor (SW480 (KRAS-MUThomo); 2 months after the administration) | state of the tumor (SW480 (KRAS-MUThomo); 3 months after the administration) | cancer tumor-inhibitory effect / tumor growth suppression (SW480 (KRAS-MUThomo)) | change in cell cycle (LS180 cells [2]) | change in cell cycle, Sub G1 stage (cell death) (LS180 cells [2]) | DNA fragmentation (LS180 cells [3]; 72-hour-treated groups) | DNA fragmentation (LS180 cells [3]; long-term treatment) |
| --- | --- | --- | --- | --- | --- | --- | --- | --- | --- | --- | --- |
| CC(=O)Nc1cn(C)c(C(=O)Nc2cc(C(=O)NCCC(=O)Nc3cn(C)c(C(=O)Nc4cn(C)c(C(=O)Nc5cc(C(=O)Nc6cn(C)c(C(=O)NCCCC(=O)Nc7cc(C(=O)Nc8cn(C)c(C(=O)NCCC(=O)Nc9cc(C(=O)Nc%10cc(C(=O)Nc%11ccc%12[nH]c(C(=O)N%13CC(CCl)c%14c%13cc(O)c%13ccccc%14%13)cc%12c%11)n(C)c%10)n(C)c9)n8)n(C)c7)n6)n(C)c5)n4)n3)n(C)c2)n1 (stereo not shown) [KR12] | 14 | 29 | the number of mutant gene colonies was a half of the number of wild-type gene colonies | significantly reduced | significantly reduced | an extremely small and hard induration | significantly higher than in the case of administration of KR13 | the LS180 cells at the S stage were increased | the cells at the Sub G1 stage were significantly increased | DNA fragmentation was not observed | DNA fragmentation induced by cell death was observed |
| CC(=O)Nc1cn(C)c(C(=O)Nc2cn(C)c(C(=O)Nc3cc(C(=O)Nc4cn(C)c(C(=O)NCCC(=O)Nc5cc(C(=O)Nc6cn(C)c(C(=O)NCCCC(=O)Nc7cc(C(=O)Nc8cn(C)c(C(=O)Nc9cc(C(=O)NCCC(=O)Nc%10cc(C(=O)Nc%11ccc%12[nH]c(C(=O)N%13CC(CCl)c%14c%13cc(O)c%13ccccc%14%13)cc%12c%11)n(C)c%10)n(C)c9)n8)n(C)c7)n6)n(C)c5)n4)n(C)c3)n2)n1 (stereo not shown) [KR13] | 22 | 15 | the number of mutant genes was rather increased |  |  |  | impossible | the cells at the S phase and the G2M phase were slightly increased | an increase in the cell at the Sub G1 phase was not significant | DNA fragmentation was not observed | DNA fragmentation was not observed |

Source: US11185593B2, “Alkylating agent for alkylating target with driver oncogene mutation” (Chiba Prefecture, priority 2013, dated 2021)
